Experiments:
Nociceptin receptor [1] = molecular target: T1, Nociceptin receptor (Homo sapiens, UniProt P41146); assay: Displacement of [125I][Tyr14]N/OFQ from ORL1 receptor transfected in CHO cells; assay type: cell-based
Nociceptin receptor [2] = molecular target: T1, Nociceptin receptor; assay: Displacement of [125I][Tyr14]N/OFQ from ORL1 receptor transfected in CHO cells at 1 uM; assay type: cell-based
Nociceptin receptor [3] = molecular target: T1, Nociceptin receptor; assay: Antagonist activity against ORL1 receptor by GTPgammaS assay; assay type: functional

T1 sequence (P41146 whole entry): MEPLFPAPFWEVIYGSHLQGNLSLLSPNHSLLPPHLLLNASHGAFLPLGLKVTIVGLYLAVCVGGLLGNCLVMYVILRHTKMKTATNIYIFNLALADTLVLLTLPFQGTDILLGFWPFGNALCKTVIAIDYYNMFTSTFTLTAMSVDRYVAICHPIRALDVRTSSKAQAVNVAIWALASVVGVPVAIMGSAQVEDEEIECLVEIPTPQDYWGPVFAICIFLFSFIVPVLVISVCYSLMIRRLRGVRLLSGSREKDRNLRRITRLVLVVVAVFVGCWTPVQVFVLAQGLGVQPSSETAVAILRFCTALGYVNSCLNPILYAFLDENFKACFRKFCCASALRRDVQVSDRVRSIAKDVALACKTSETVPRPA

Row | SMILES | IC50 (Nociceptin receptor [1]) | inhibition (Nociceptin receptor [2]) | IC50 (Nociceptin receptor [3])
1 | CN(C)CCc1cccc2[nH]c(-c3nc(CCc4cccnc4)no3)cc12 | > 1000 nM | 1.7% | 
2 | CN(C)CCc1cccc2[nH]c(-c3nc(CCC(C)(C)C)no3)cc12 | > 1000 nM | 20% | 
3 | CN(C)CCOCCc1cccc2[nH]c(-c3nc(CCc4ccc(Cl)cc4)no3)cc12 | 97 nM |  | 450 nM
4 | CN(C)CCc1cccc2[nH]c(-c3nc(CCC4CCCC4)no3)cc12 | 580 nM |  | 
5 | CCCc1noc(-c2cc3c(CCN(C)C)cccc3[nH]2)n1 | > 1000 nM | 14% | 
6 | CN1CCN(c2[nH]ccc3nc(-c4nc(CCc5ccc(Cl)cc5)no4)cc2-3)CC1 | 40 nM |  | 199 nM
7 | CN(C)CCc1cccc2[nH]c(C(=O)NCCCc3ccc(Cl)cc3)cc12 | > 1000 nM | 41% | 
8 | CN(C)CCc1ccc2[nH]c(-c3nc(CCc4ccc(Cl)cc4)no3)cc2c1 | > 1000 nM | 3% | 
9 | CN(C)CCc1cccc2[nH]c(-c3nc(CCc4ccccc4)no3)cc12 | > 1000 nM | 46% | 
10 | CN(C)CCCc1cccc2[nH]c(-c3nc(CCc4ccc(Cl)cc4)no3)cc12 | 210 nM |  | 
11 | CN(C)CCc1cccc2[nH]c(-c3nc(CCc4ccccn4)no3)cc12 | > 1000 nM | 11% | 
12 | CN(C)CCc1cccc2[nH]c(-c3nc(CCc4ccc(N(C)C)cc4)no3)cc12 | > 1000 nM | 44% | 
13 | CCN(C)CCc1cccc2[nH]c(-c3nc(CCc4ccc(Cl)cc4)no3)cc12 | 58 nM |  | 223 nM
14 | CN(C)CCc1cccc2[nH]c(-c3nc(Cc4ccc(Cl)cc4)no3)cc12 | 450 nM |  | 
15 | CN(C)CCc1cccc2[nH]c(-c3nc(CCc4ccc(F)cc4)no3)cc12 | 450 nM |  | 
16 | CN(C)CCc1cccc2[nH]c(-c3nc(CCCN4CCCC4)no3)cc12 | > 1000 nM | 0% | 
17 | CN1CCC(c2cccc3[nH]c(-c4nc(CCc5ccc(Cl)cc5)no4)cc23)CC1 | 62 nM |  | 899 nM
18 | CN(C)CCc1cccc2[nH]c(-c3nc(CCC4CCOCC4)no3)cc12 | > 1000 nM | 11% | 
19 | CN(C)Cc1cccc2[nH]c(-c3nc(CCc4ccc(Cl)cc4)no3)cc12 | 62 nM |  | 233 nM
20 | CN(C)CCc1cccc2[nH]c(-c3noc(CCc4ccc(Cl)cc4)n3)cc12 | 600 nM |  | 
21 | COC(C)(C)CCc1noc(-c2cc3c(CCN(C)C)cccc3[nH]2)n1 | > 1000 nM | 4% | 
22 | CN(C)CCc1cccc2cc(-c3nc(CCc4ccc(Cl)cc4)no3)[nH]c12 | > 1000 nM | 18% | 
23 | Clc1ccc(CCc2noc(-c3cc4c(CCN5CCCC5)cccc4[nH]3)n2)cc1 | 568 nM |  | 

Row | SMILES | IC50 (Nociceptin receptor [1]) | inhibition (Nociceptin receptor [2]) | IC50 (Nociceptin receptor [3])
24 | CN1CCN(c2cccc3[nH]c(-c4nc(CCc5ccc(Cl)cc5)no4)cc23)CC1 | 120 nM |  | 
25 | CN1CCCC1c1ccc2[nH]c(-c3nc(CCc4ccc(Cl)cc4)no3)cc2c1C1CCCN1C (centres undefined) | > 1000 nM | 31% | 
26 | CN(C)CCc1cccc2[nH]c(-c3nc(CCc4ccc(C(F)(F)F)cc4)no3)cc12 | 49 nM |  | 421 nM
27 | CN(C)CCc1cccc2[nH]c(-c3nc(CCC4CC5CCC4C5)no3)cc12 (centres undefined) | 440 nM |  | 
28 | CN(C)CCc1cccc2[nH]c(-c3nc(COc4ccc(Cl)cc4)no3)cc12 | 410 nM |  | 
29 | CN(C)CCc1ccc2cc(-c3nc(CCc4ccc(Cl)cc4)no3)[nH]c2c1 | > 1000 nM | 22% | 
30 | CN(C)CCc1cccc2[nH]c(-c3nnn(CCc4ccc(Cl)cc4)n3)cc12 | > 1000 nM | 46% | 
31 | CN(C)CCc1cccc2[nH]c(-c3nc(CC4CCCCC4)no3)cc12 | 440 nM |  | 
32 | CN(C)CCc1cccc2[nH]c(-c3nc(CCC4CCCCC4)no3)cc12 | 140 nM |  | 
33 | CN(C)CCc1cccc2[nH]c(C(=O)NCCc3ccc(Cl)cc3)cc12 | > 1000 nM | 18% | 
34 | CN(C)CCc1cccc2[nH]c(-c3nc(CCc4ccc(Cl)cc4)no3)cc12 | 95 nM |  | 632 nM
35 | CN(C)CCc1cccc2[nH]c(-c3ncc(CCc4ccc(Cl)cc4)o3)cc12 | > 1000 nM | 37% | 
36 | CN(C)CCc1cccc2[nH]c(-c3nc(CCc4ccncc4)no3)cc12 | > 1000 nM | 12% | 
37 | Clc1ccc(CCc2noc(-c3cc4c(CCN5CCOCC5)cccc4[nH]3)n2)cc1 | > 1000 nM | 15% | 
38 | CN(C)CCc1cccc2[nH]c(-c3nnc(CCc4ccc(Cl)cc4)o3)cc12 | > 1000 nM | 39% | 
39 | Cc1ccc(CCc2noc(-c3cc4c(CCN(C)C)cccc4[nH]3)n2)cc1 | 230 nM |  | 
40 | CCCCc1noc(-c2cc3c(CCN(C)C)cccc3[nH]2)n1 | > 1000 nM | 42% | 
41 | CN(C)CCc1cccc2[nH]c(-c3nc(CCCC4CCCCC4)no3)cc12 | 71 nM |  | 294 nM
42 | CC(C)CCc1noc(-c2cc3c(CCN(C)C)cccc3[nH]2)n1 | > 1000 nM | 29% | 
43 | CN1CCN(c2cc[nH]c3nc(-c4nc(CCc5ccc(Cl)cc5)no4)cc2-3)CC1 | > 1000 nM | 27% | 
44 | CN(C)CCc1cccc2[nH]c(-c3nc(CCC4CC4)no3)cc12 | > 1000 nM | 29% | 
45 | COc1ccc(CCc2noc(-c3cc4c(CCN(C)C)cccc4[nH]3)n2)cc1 | 560 nM |  | 
46 | CN(C)CCc1cccc2[nH]c(-c3nc(CCCc4ccc(Cl)cc4)no3)cc12 | > 1000 nM | 49% | 

Reference: ChEMBL document CHEMBL1138905, “Design, synthesis, and biological evaluation of indole derivatives as novel nociceptin/orphanin FQ (N/OFQ) receptor antagonists” (Bioorg Med Chem Lett, 2006)
